# In US10143737B2, “Method for the vaccination against HIV” (Bionor Immuno AS, priority 2014, dated 2018):
# Bridges are numbered along the chain shown (N, C = ends). Roman numbers before positions name the chains, in order. Where no end group is shown, it is not given here.
# Tests used:
# [1] = test system: Anti-C5/gp41 sera from BI400-B immunized rabbits; experiment: Competitive ELISA for rabbit sera after immunization with BI400-B; format: binding; details: for Inhibition of binding of rabbit sera to C5/gp41 (015/201): competitor preincubated with serum, 10-1000 μM
# Method: 50-100 μl of a mixture of BI400-015 and -201 (pre-incubated in Coating buffer—0.05M Na2CO3 pH9.6; denoted CB—in cold at 16 μg/ml for each peptide 1-3 days prior to coating) or just CB (background control) was used for coating wells in microtiter plates at 4° C. overnight. Plates were then washed 3x with washing buffer (PBS+1% v/v Triton-X100; denoted WB), followed by 2 h blocking at room temperature (RT) with 200 μl/well of blocking buffer (PBS+1% w/v BSA). Plates were then washed 3x with WB, followed by 1 h incubation at 37° C. with 60-100 μl/well of added rabbit serum samples (diluted 1:10-1:250 final concentration) preincubated together (4° C. overnight) with serial dilutions (ranging from 10-1000 μM final concentration) of 400-SEQ.B, BI400-015, BI400-201, BI400-204d, recombinant gp41 (Shin-Won Scientific, SWO 102 gp41), BI301-23 (irrelevant protein; control), no peptide (i.e. PBS; control), LTNP-sera pools (diluted 1:10 final concentration), or Blood donor sera-pools (diluted 1:10 final concentration; control). Plates were then washed 6x with WB, followed by 1 h incubation at RT with 70 μl/well of Alkaline Phosphatase-conjugated Goat-anti-Rabbit-Ig (6 μg/ml; Dako D0487). Plates were then washed 6x with WB, followed by 10-60 min incubation at RT with 100 μl/well of 0.3% w/v of Phenoftalein monophosphate (Sigma P-5758). Plates were finally quenched by adding 100 μl/well of Quench solution (0.1M TRIS+0.1M EDTA+0.5M NaOH+0.01% w/v NaN3; pH14), followed by ELISA reader (ASYS UVM 340) at 550 nm.
# [2] = test system: pooled human sera from HIV chronically infected individuals, LTNP and non-infected blood donors; experiment: Seroreactivity of pooled human sera to peptide-coated magnetic particles (general ELISA principle); format: binding; details: peptide 600 μg/ml alone or 300 μg/ml each in combination; positivity determined visually
# Method: Seroreactivity to SEQ ID NO: 1 alone or in combination with SEQ ID NOs. 6 (with the sequence […]), 8 and 9 was determined according to a general ELISA principle either using magnetic particles as a solid support or attachment of peptides to a 96-well tray.
# In the system described below, peptide was coated on to magnetic particles using generally accepted techniques. 300 μg was coated onto particles for all peptides with the exception of SEQ1 where 600 μg was used. SEQ ID NO: 1 (from C5) and SEQ ID NO: 6, 8 and 9 (from gp41) were preincubated overnight at 4 degrees C. to allow interactions to form between between C5 and gp41 sequences respectively and all combined. Sera were then incubated with the peptide coated beads according to established protocols. Visualisation of antibody binding to C5 peptides was achieved using protein G that can bind immunoglobulins from different species coupled to alkaline phosphatase. The positive control was commercially available serum from a sheep immunised with the C5 derived sequence […] (SEQ ID NO: 1).
# Pooled sera from 25 LTNP were tested for seroreactivity to SEQ ID NO: 1 alone and SEQ ID NO: 1 when in combination with SEQ ID NOs: 6 ([…]), 8 and 9 respectively and all combined. Pooled sera were also tested from 12 HIV positive, chronically infected individuals and 20 sera from blood donors.
# C5/gp41 (015/201) = experiment: Rabbit immunization with BI400-B vaccine, serum ELISA; format: in vivo, New Zealand White female rabbits; details: 500 μg intradermally weeks 0, 2, 6 in Freund's adjuvant; in the presence of PBS
# Method: New Zealand White female rabbits (n=3) were immunized intradermally at weeks 0, 2 & 6 with 1 ml of BI400-B vaccine consisting of 500 μg BI400-B in 50% V/V Freund's adjuvant (i.e. Complete Freund's adjuvant used for priming, followed by boostings with Incomplete Freund's adjuvant). Individual blood serum was isolated for ELISA.
# 50-100 μl of a mixture of BI400-015 and -201 (pre-incubated in Coating buffer—0.05M Na2CO3 pH9.6; denoted CB—in cold at 16 μg/ml for each peptide 1-3 days prior to coating) or just CB (background control) was used for coating wells in microtiter plates at 4° C. overnight. Plates were then washed 3x with washing buffer (PBS+1% v/v Triton-X100; denoted WB), followed by 2 h blocking at room temperature (RT) with 200 μl/well of blocking buffer (PBS+1% w/v BSA). […] Plates were finally quenched by adding 100 μl/well of Quench solution (0.1M TRIS+0.1M EDTA+0.5M NaOH+0.01% w/v NaN3; pH14), followed by ELISA reader (ASYS UVM 340) at 550 nm.
# HIV-specific T-cells = details: dendritic cells presenting Gag- or Nef-specific peptides; cited from earlier work
# [3] = test system: latently infected cell lines and primary T cells; details: cited from earlier work
compound,measurement,setting,value
DRPEGIEEEGGERDR (Glu can be Gly; Gly can be Arg; Arg can be Gln; Asp can be Gly; Arg can be Lys) [SEQ ID NO: 6],Inhibition of binding of rabbit sera to C5/gp41 (015/201),[1],could be inhibited
APTKAKRRVVQREKR [SEQ ID NO: 1],"Seroreactivity, Blood-donors pool",[2],=
same,Inhibition of binding of rabbit sera to C5/gp41 (015/201),[1],could be inhibited
BI400-B: SEQ ID NO: 38 and SEQ ID NO: 39 linked via Cys and Lys residues (chain 1 GAKRRVVGGCGGAKRRVVQREKRAGEREKRA; chain 2 GKGGIEEEGGRDRDRGGEQDRDR; bridge I:10-II:2 (inferred)),Binding of sera from immunized rabbits to C5/gp41 peptides,C5/gp41 (015/201),bound to peptides corresponding to C5/gp41 (015/201)
same,Inhibition of binding of rabbit sera to C5/gp41 (015/201),[1],could be inhibited
same,Competition of anti-C5/gp41 rabbit sera by human sera pools,[1]; sera pools diluted 1:10,"competitively inhibited by LTNP-sera pools, but not with BD control sera"
Nc1cccc2c1C(=O)N(C1CCC(=O)NC1=O)C2=O (stereo not shown) [pomalidomide],Function of T-cells after in vitro stimulation in presence of IMiDs,HIV-specific T-cells,a number of improvements in the function of the T-cells
GGAIVNGSLADDDIVI [SEQ ID NO: 37],Inhibition of binding of rabbit sera to C5/gp41 (015/201),[1],could be inhibited
"C/C=C1\NC(=O)[C@H]2CSSCC/C=C/[C@H](CC(=O)N[C@H](C(C)C)C(=O)N2)OC(=O)[C@H](C(C)C)NC1=O [romidepsin, (1S,4S,7Z,10S,16E,21R)-7-ethylidene-4,21-bis(1-methylethyl)-2-oxa-12,13-dithia-5,8,20,23-tetraazabicyclo[8.7.6] tricos-16-ene-3,6,9,19,22-pentone]",Activation of HIV-1 expression,[3],potently activates HIV-1 expression
Nc1cccc2c1CN(C1CCC(=O)NC1=O)C2=O (stereo not shown) [Lenalidomide],Function of T-cells after in vitro stimulation in presence of IMiDs,HIV-specific T-cells,a number of improvements in the function of the T-cells
